What was measured:
human TLR7 = human TLR7 (Homo sapiens (Human), UniProt Q9NYK1); assay: TLR7 inhibition reporter assay (HEK-Blue SEAP); format: cell-based; conditions: HEK-Blue cells overexpressing human TLR7, gardiquimod 7.5 μM stimulation, SEAP reporter
human TLR8 = human TLR8 (Homo sapiens (Human), UniProt Q9NR97); assay: TLR8 inhibition reporter assay (HEK-Blue SEAP); conditions: read-out: TLR8 IC50; HEK-Blue cells overexpressing human TLR8, R848 15.9 μM stimulation, SEAP reporter;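 further: SEAP driven by IFN-β minimal promoter carrying NF-κB and AP-1 sites, compounds dosed 0.05 nM to 50 µM for 22 h, inhibition scaled between agonist-plus-DMSO and reference-inhibitor wells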
human TLR9 = human TLR9 (Homo sapiens (Human), UniProt Q9NR96); assay: TLR9 inhibition reporter assay (HEK-Blue SEAP); conditions: read-out: TLR9 IC50; HEK-Blue cells overexpressing human TLR9, ODN2006 5 nM stimulation, SEAP reporter;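 further: SEAP driven by an IFN-β minimal promoter with NF-κB and AP-1 sites, read after 22 h, compounds dosed 0.05 nM–50 µM, inhibition scaled between agonist plus DMSO and reference-inhibitor wells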
Chain of human TLR9 (Q9NR96 26-1032): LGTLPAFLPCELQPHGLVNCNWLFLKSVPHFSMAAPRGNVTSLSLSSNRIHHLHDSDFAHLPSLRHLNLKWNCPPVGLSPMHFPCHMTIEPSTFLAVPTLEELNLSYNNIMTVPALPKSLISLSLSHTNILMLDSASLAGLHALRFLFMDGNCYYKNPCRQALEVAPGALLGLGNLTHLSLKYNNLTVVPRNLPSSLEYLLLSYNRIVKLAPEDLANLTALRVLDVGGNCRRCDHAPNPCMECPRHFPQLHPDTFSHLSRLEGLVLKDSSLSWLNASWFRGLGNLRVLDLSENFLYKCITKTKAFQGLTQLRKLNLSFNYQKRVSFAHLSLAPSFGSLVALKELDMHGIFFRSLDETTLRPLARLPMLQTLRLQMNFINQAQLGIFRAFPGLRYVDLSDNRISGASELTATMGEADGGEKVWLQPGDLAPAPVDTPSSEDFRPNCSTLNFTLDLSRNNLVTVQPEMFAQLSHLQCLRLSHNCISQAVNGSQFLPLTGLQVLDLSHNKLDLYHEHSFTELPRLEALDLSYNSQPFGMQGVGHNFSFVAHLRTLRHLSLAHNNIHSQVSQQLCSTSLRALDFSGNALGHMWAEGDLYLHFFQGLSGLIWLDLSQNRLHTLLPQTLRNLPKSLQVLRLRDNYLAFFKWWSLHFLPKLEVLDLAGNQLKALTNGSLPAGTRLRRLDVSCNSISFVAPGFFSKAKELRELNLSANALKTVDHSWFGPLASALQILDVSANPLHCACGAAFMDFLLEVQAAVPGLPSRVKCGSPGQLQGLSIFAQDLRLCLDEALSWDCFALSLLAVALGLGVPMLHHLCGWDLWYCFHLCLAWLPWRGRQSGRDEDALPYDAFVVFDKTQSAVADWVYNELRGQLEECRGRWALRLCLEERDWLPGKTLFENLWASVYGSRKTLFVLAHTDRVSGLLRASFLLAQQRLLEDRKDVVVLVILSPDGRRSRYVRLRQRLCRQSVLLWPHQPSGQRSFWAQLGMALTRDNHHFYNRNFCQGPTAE

Chain of human TLR7 (Q9NYK1 27-1049): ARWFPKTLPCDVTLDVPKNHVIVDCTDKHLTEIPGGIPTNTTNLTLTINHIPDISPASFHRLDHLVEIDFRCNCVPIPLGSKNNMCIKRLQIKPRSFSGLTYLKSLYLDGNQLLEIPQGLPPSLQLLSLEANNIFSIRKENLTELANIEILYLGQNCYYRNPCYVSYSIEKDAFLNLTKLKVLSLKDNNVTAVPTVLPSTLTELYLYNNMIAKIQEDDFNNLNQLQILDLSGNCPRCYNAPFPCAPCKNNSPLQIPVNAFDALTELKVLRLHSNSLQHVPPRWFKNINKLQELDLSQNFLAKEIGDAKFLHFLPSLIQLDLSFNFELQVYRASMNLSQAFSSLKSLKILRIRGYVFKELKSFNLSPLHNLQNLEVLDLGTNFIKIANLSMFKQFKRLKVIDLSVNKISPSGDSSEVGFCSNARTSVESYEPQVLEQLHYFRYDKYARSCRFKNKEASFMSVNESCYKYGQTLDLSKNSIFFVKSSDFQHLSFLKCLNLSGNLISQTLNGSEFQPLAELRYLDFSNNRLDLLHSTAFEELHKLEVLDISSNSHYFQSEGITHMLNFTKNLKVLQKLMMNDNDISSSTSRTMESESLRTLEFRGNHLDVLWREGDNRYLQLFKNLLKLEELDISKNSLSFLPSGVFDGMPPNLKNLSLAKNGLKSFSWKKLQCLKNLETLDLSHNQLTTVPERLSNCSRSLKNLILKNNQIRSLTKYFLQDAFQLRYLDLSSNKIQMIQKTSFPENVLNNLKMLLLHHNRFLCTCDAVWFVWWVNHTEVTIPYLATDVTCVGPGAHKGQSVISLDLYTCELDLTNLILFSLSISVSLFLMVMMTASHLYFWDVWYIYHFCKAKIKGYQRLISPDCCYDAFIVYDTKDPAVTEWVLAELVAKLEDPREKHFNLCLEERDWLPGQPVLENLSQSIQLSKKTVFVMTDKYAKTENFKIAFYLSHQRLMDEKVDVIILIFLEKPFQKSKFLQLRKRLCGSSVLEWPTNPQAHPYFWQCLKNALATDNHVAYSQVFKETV
Chain of human TLR8 (Q9NR97 27-1041): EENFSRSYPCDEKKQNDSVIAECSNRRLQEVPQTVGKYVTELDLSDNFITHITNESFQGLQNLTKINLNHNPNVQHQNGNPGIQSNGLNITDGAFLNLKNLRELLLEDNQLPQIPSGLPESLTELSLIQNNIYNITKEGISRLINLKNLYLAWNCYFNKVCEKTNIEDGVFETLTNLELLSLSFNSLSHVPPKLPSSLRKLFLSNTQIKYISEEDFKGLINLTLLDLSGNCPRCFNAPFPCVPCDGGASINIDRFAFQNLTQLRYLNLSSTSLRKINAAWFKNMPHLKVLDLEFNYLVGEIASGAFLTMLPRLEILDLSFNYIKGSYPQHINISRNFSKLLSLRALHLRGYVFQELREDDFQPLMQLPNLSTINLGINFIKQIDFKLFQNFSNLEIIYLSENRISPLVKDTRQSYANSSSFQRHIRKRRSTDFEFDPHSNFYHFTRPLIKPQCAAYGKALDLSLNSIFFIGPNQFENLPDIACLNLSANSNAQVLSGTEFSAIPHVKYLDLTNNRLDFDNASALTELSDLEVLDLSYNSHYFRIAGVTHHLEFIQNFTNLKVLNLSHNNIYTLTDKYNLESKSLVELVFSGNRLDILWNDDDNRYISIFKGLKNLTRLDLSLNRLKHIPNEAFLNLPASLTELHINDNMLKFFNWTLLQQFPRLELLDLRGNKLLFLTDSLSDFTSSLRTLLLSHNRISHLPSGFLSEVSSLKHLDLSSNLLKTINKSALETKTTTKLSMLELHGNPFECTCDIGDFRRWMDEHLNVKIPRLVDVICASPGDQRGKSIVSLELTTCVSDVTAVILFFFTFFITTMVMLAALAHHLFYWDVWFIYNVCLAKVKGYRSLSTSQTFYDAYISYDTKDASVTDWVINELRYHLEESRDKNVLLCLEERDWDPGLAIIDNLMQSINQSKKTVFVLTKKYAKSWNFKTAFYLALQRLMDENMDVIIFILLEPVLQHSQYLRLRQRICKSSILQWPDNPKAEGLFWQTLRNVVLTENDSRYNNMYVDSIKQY

Compound	IC50 (human TLR7) [nM]	IC50 (human TLR8) [nM]	IC50 (human TLR9) [nM]
COCCNC1CCC(c2nc3c(C(C)C)c(-c4cc(OC)c5ncnn5c4)[nH]c3cc2C)CC1 (stereo not drawn) [Example 327]	> 3120	> 3120	> 50000
COc1cc(-c2[nH]c3cc(C)c(C4CCC(NC5CCOC5)CC4)nc3c2C(C)C)cn2ncnc12 (stereo not drawn) [Example 328]	0.08	1.1	576
COc1cc(-c2[nH]c3cc(C)c(C4CCC(NC5CCOC5)CC4)nc3c2C(C)C)cn2ncnc12 (stereo not drawn) [Example 329]	1.6	23	2070
COc1cc(-c2[nH]c3cc(C)c(C4CCC(N(C)C5COC5)CC4)nc3c2C(C)C)cn2ncnc12 (stereo not drawn) [Example 330]	0.14	4.8	2970
COc1cc(-c2[nH]c3cc(C)c(C4CCC(N(C)C5COC5)CC4)nc3c2C(C)C)cn2ncnc12 (stereo not drawn) [Example 331]	1.7	34	1910
COc1cc(-c2[nH]c3cc(C)c(C4CCC(N(C)Cc5ncn(C)n5)CC4)nc3c2C(C)C)cn2ncnc12 (stereo not drawn) [Example 332]	1.3	88	2660
COc1cc(-c2[nH]c3cc(C)c(C4CCC(N(C)Cc5ncn(C)n5)CC4)nc3c2C(C)C)cn2ncnc12 (stereo not drawn) [Example 333]	0.6	12	1460
COc1cc(-c2[nH]c3cc(C)c(C4CCC(N(C)CC(C)(C)C)CC4)nc3c2C(C)C)cn2ncnc12 (stereo not drawn) [Example 334]	4.6	127	2400
COc1cc(-c2[nH]c3cc(C)c(C4CCC(N(C)CC(C)(C)C)CC4)nc3c2C(C)C)cn2ncnc12 (stereo not drawn) [Example 336]	2.8	48	3440
COc1cc(-c2[nH]c3cc(C)c(C4CCC(N5CC(F)(F)C5)CC4)nc3c2C(C)C)cn2ncnc12 (stereo not drawn) [Example 337]	21	350	> 50000
COc1cc(-c2[nH]c3cc(C)c(C4CCC(N5CC(F)(F)C5)CC4)nc3c2C(C)C)cn2ncnc12 (stereo not drawn) [Example 338]	81	1170	> 50000
COc1cc(-c2[nH]c3cc(C)c(C4CCC(N(C)CCC#N)CC4)nc3c2C(C)C)cn2ncnc12 (stereo not drawn) [Example 339]	0.2	7.1	5890
COc1cc(-c2[nH]c3cc(C)c(C4CCC(N(C)CCC#N)CC4)nc3c2C(C)C)cn2ncnc12 (stereo not drawn) [Example 340]	1.4	51	1870
COc1cc(-c2[nH]c3cc(F)c(C4CCC(NCC5(C)COC5)CC4)nc3c2C(C)C)cn2ncnc12 (stereo not drawn) [Example 341]	0.12	0.32	2640
COc1cc(-c2[nH]c3cc(F)c(C4CCC(NCC5(C)COC5)CC4)nc3c2C(C)C)cn2ncnc12 (stereo not drawn) [Example 342]	0.98	3.9	1910
COc1cc(-c2[nH]c3cc(F)c(C4CCC(N5CC6(COC6)C5)CC4)nc3c2C(C)C)cn2ncnc12 (stereo not drawn) [Example 343]	0.19	0.54	1250
COc1cc(-c2[nH]c3cc(F)c(C4CCC(N5CC6(COC6)C5)CC4)nc3c2C(C)C)cn2ncnc12 (stereo not drawn) [Example 344]	0.72	4.8	2790
COc1cc(-c2[nH]c3cc(F)c(C4CCC(NC5COC5)CC4)nc3c2C(C)C)cn2ncnc12 (stereo not drawn) [Example 345]	0.21	0.68	1680
COc1cc(-c2[nH]c3cc(F)c(C4CCC(NC5COC5)CC4)nc3c2C(C)C)cn2ncnc12 (stereo not drawn) [Example 346]	0.32	6	6290
CNC1CCC(c2nc3c(C(C)C)c(-c4cc(OC)c5ncnn5c4)[nH]c3cc2F)CC1 (stereo not drawn) [Example 347]	0.27	1	2470
CNC1CCC(c2nc3c(C(C)C)c(-c4cc(OC)c5ncnn5c4)[nH]c3cc2F)CC1 (stereo not drawn) [Example 348]	0.82	8.3	6960
Cc1c(-c2[nH]c3ccc(C4CCC(=O)CC4)nc3c2C(C)C)cn2ncnc2c1C [Example 349]	7.7	63	> 50000
Cc1c(-c2[nH]c3ccc(C4CCC(NC5COC5)CC4)nc3c2C(C)C)cn2ncnc2c1C (stereo not drawn) [Example 350]	0.72	1	1160
Cc1c(-c2[nH]c3ccc(C4CCC(NC5COC5)CC4)nc3c2C(C)C)cn2ncnc2c1C (stereo not drawn) [Example 351]	2.3	4.3	1690
Cc1c(-c2[nH]c3ccc(C4CCC(NCC(=O)N(C)C)CC4)nc3c2C(C)C)cn2ncnc2c1C (stereo not drawn) [Example 352]	5.4	9.2	2320
Cc1c(-c2[nH]c3ccc(C4CCC(N(C)C)CC4)nc3c2C(C)C)cn2ncnc2c1C (stereo not drawn) [Example 353]	0.64	0.96	940

Compound	IC50 (human TLR7) [nM]	IC50 (human TLR8) [nM]	IC50 (human TLR9) [nM]
Cc1c(-c2[nH]c3ccc(C4CCC(NCC(=O)N(C)C)CC4)nc3c2C(C)C)cn2ncnc2c1C (stereo not drawn) [Example 354]	1	2.3	790
Cc1c(-c2[nH]c3ccc(C4CCC(N(C)C)CC4)nc3c2C(C)C)cn2ncnc2c1C (stereo not drawn) [Example 355]	2.6	10	4500
Cc1c(-c2[nH]c3ccc(C4CCC(N(C)C)CC4)nc3c2C(C)C)cn2ncnc2c1C (stereo not drawn) [Example 356]	2.8	5.1	2860
Cc1cnc(CNC2CCC(c3ccc4[nH]c(-c5cn6ncnc6c(C)c5C)c(C(C)C)c4n3)CC2)cn1 (stereo not drawn) [Example 357]	3.9	4.4	1050
Cc1c(-c2[nH]c3ccc(C4CCC(NC(C)C)CC4)nc3c2C(C)C)cn2ncnc2c1C (stereo not drawn) [Example 358]	0.95	2.8	1320
Cc1cnc(CNC2CCC(c3ccc4[nH]c(-c5cn6ncnc6c(C)c5C)c(C(C)C)c4n3)CC2)cn1 (stereo not drawn) [Example 359]	9.1	29	4870
Cc1c(-c2[nH]c3ccc(C4CCC(N5CCCC5)CC4)nc3c2C(C)C)cn2ncnc2c1C (stereo not drawn) [Example 360]	1.3	3.4	1410
Cc1c(-c2[nH]c3ccc(C4CCC(N(C)CCC#N)CC4)nc3c2C(C)C)cn2ncnc2c1C (stereo not drawn) [Example 361]	0.79	1	1250
Cc1c(-c2[nH]c3ccc(C4CCC(N5CCOCC5)CC4)nc3c2C(C)C)cn2ncnc2c1C (stereo not drawn) [Example 362]	1.6	5.1	1630
Cc1c(-c2[nH]c3ccc(C4CCC(NC(C)C)CC4)nc3c2C(C)C)cn2ncnc2c1C (stereo not drawn) [Example 363]	3.3	6.6	1480
Cc1c(-c2[nH]c3ccc(C4CCC(N(C)C(C)C)CC4)nc3c2C(C)C)cn2ncnc2c1C (stereo not drawn) [Example 364]	1.5	9.6	2520
Cc1c(-c2[nH]c3ccc(C4CCC(N(C)CCO)CC4)nc3c2C(C)C)cn2ncnc2c1C (stereo not drawn) [Example 365]	4.2	7.9	3200
Cc1c(-c2[nH]c3ccc(C4CCC(N(C)CCC#N)CC4)nc3c2C(C)C)cn2ncnc2c1C (stereo not drawn) [Example 366]	5.3	15	4690
Cc1c(-c2[nH]c3ccc(C4CCC(N(C)CC(=O)N(C)C)CC4)nc3c2C(C)C)cn2ncnc2c1C (stereo not drawn) [Example 368, 2-((4-(2-(7,8-dimethyl-[1,2,4]triazolo[1,5-a]pyridin-6-yl)-3-isopropyl-1H-pyrrolo[3,2-b]pyridin-5-yl)cyclohexyl)(methyl)amino)-N,N-dimethylacetamide]	1.5	2.5	1610
Cc1c(-c2[nH]c3ccc(C4CCC(N5CC(F)(F)C5)CC4)nc3c2C(C)C)cn2ncnc2c1C (stereo not drawn) [Example 370]	8.6	23	> 50000
C#CCNC1CCC(c2ccc3[nH]c(-c4cn5ncnc5c(C)c4C)c(C(C)C)c3n2)CC1 (stereo not drawn) [Example 371]	6	14	4360
Cc1c(-c2[nH]c3ccc(C4CCC(N5CCC[C@@H]5CO)CC4)nc3c2C(C)C)cn2ncnc2c1C (stereo partly drawn) [Example 372]	3.2	7.6	1460
Cc1c(-c2[nH]c3ccc(C4CCC(NCCC(F)(F)F)CC4)nc3c2C(C)C)cn2ncnc2c1C (stereo not drawn) [Example 373]	8.6	8.3	1960
Cc1c(-c2[nH]c3ccc(C4CCC(N5CC(F)(F)C5)CC4)nc3c2C(C)C)cn2ncnc2c1C (stereo not drawn) [Example 374]	36	187	21600
C#CCNC1CCC(c2ccc3[nH]c(-c4cn5ncnc5c(C)c4C)c(C(C)C)c3n2)CC1 (stereo not drawn) [Example 375]	0.87	4.4	2720
Cc1c(-c2[nH]c3ccc(C4CCC(NCCC(F)(F)F)CC4)nc3c2C(C)C)cn2ncnc2c1C (stereo not drawn) [Example 376]	0.71	1.2	1030
Cc1c(-c2[nH]c3ccc(C4CCC(N5CCC[C@@H]5CO)CC4)nc3c2C(C)C)cn2ncnc2c1C (stereo partly drawn) [Example 377]	2.1	2.2	767
CCN(CC)C1CCC(c2ccc3[nH]c(-c4cn5ncnc5c(C)c4C)c(C(C)C)c3n2)CC1 (stereo not drawn) [Example 378]	1.6	4.6	1640
Cc1c(-c2[nH]c3ccc(C4CCC(NCCO)CC4)nc3c2C(C)C)cn2ncnc2c1C (stereo not drawn) [Example 379]	2.6	4.7	909
Cc1c(-c2[nH]c3ccc(C4CCC(N(C)C5CC5)CC4)nc3c2C(C)C)cn2ncnc2c1C (stereo not drawn) [Example 380]	1.4	1.6	1880

— patent publication US10544143B2, “4-azaindole compounds” (BRISTOL-MYERS SQUIBB COMPANY, priority 2017, dated 2020)
